{"source": "patent US20150087037A1", "about": "“FERMENTATION PROCESS” (LanzaTech New Zealand Limited, priority 2013, published 2015)", "key": {"[1]": {"tested_on": "Ketol-acid reductoisomerase IlvC", "details": "reference in the literature; cited from earlier work"}, "[2]": {"tested_on": "C. autoethanogenum DSM23693", "assay": "Addition of other known inhibitor to a fermentation optimized for 2,3-Butanediol production", "assay_type": "cell-based, Clostridium autoethanogenum", "details": "single addition, 15 mM, stable reactor, day 13.2, FIG. 13", "experimental": "Fermentations with C. autoethanogenum DSM23693 were carried out in 1.5 L bioreactors at 37° C. The media was prepared according to Table 1. To achieve anaerobicity the reactor vessel was sparged with nitrogen. Prior to inoculation, the gas was switched to either steel mill gas containing H2 (3%), N2 (30%), CO (47%) and CO2 (20%) or pure gases (50% CO, 18-40% CO2, with the balance N2). The gas flow was initially set at 67 ml/min/L, increasing to 200 ml/min during mid-exponential phase, while the agitation was increased from 200 rpm to 800. Na2S was dosed into the bioreactor at 0.25 ml/hr. Once the OD600 reached 1.5, the bioreactor was switched to a continuous mode at a dilution rate of 2.0-1.6 d-l and a bacterial dilution rate of 0.9-0.6 d-l. During continuous mode gas and agitation were adjusted to 900-950 rpm and 800-900 ml/min. Na2S was increased to 1.0 ml/hr.\nLiquid culture samples were taken at differing intervals over the duration of the fermentation. These samples were used to establish the optical density at 600 nm (spectrophotometer) and the level of substrates and products (high performance liquid chromatography—HPLC). HPLC was routinely used to quantify the level of acetate, ethanol and 2,3-butanediol. The input and output gas compositions were analysed using a gas chromatographer (GC), allowing measurement of CO and H2 consumption and CO2 production by the culture. […]"}}}
{"smiles": "CCC(C)(O)C(=O)O", "note": "(stereo not drawn) [2-hydroxy-2-methylbutyric acid]", "values": [{"measurement": "inhibition of ilvC", "setting": "[1]", "result": "known inhibitor"}, {"measurement": "ethanol:2,3-BDO ratio", "setting": "[2]", "result": "drop"}, {"measurement": "production of 2,3-Butanediol", "setting": "[2]", "result": "increase"}]}
